Results as given in a melting point compilation (Tetko et al.; mined from patent text by program, amines drawn as free bases though some values may be those of a salt).

Row | melting point | SMILES
1 | 171 to 172 °C | O=C(CCc1ccccc1)Nc1cc(-c2nnc(CCc3cccc(F)c3)o2)ccn1
2 | 118 °C | NC(=S)C1CCCc2cc3c(nc21)CCC3 (stereo not given)
3 | 152 to 154 °C | COc1cc(O)ccc1-c1ccc2cc(O)ccc2c1
4 | 132 °C | CC(C)CCCC(=O)OC1c2ccccc2C(=O)N1c1ccc2ccc(Cl)nc2n1 (stereo not given)
5 | 152 to 160 °C | CCOC(=O)CNC(=O)c1ccc(CCC2CNc3nc(N)nc(O)c3C2)s1 (stereo not given)
6 | 134 to 143 °C | CN(Cc1cc2c(=O)c(C(=O)NCc3ccc(Cl)cc3)cn(C)c2s1)CC(O)c1ccc(O)cc1 (stereo not given)
7 | 65 to 68 °C | COc1cc2cc(CO)c(CO)c(-c3ccnc(-n4c(=O)cc(C(=O)N(CCO)CCO)c5ccccc54)c3)c2cc1OC
8 | 153 to 155 °C | COc1ccc(CC(=O)NC(NC(Cc2ccccc2C)=NC#N)C(C)(C)C)cc1OC (stereo not given)
9 | 76 °C | CCS(=O)(=O)Oc1ccc(C(C)(C)C)cc1C(C)(C)C
10 | 144 °C | COc1ccc(S(=O)(=O)Nc2ccc(Cl)cc2Cc2c(F)cccc2F)cc1OC
11 | 174 to 175 °C | O=C(NCCN1CCOCC1)N1CCN2C(=O)OC(c3ccccc3)(c3ccccc3)C2C1 (stereo not given)
12 | 286 to 287 °C | CC(N)C1CCC(C(=O)Nc2ccncc2)CC1 (stereo not given)
13 | 150 to 152 °C | O=[N+]([O-])c1ccc(Oc2ccc(C(c3ccc(Oc4ccc([N+](=O)[O-])cc4)cc3)(C(F)(F)F)C(F)(F)F)cc2)cc1
14 | 195 to 212 °C | Fc1cc2c(cc1F)CC(n1c(-c3nnn[nH]3)c[nH]c1=S)CC2 (stereo not given)
15 | 98 °C | N#Cc1ccc(C(Cc2ccc(C#N)cn2)Cn2cncn2)cc1 (stereo not given)
16 | 82 to 85 °C | CCOC(=O)C(C)(C)Oc1ccc(C(=O)c2ccccc2)cc1
17 | 30 to 32 °C | CCCCCCCCOCC(CO)(CO)COCCCCCCCC
18 | 178 to 179 °C | O=C1C2=C(CCCC2)C(O)N1c1ccc(Cl)cc1F (stereo not given)
19 | 142 to 143 °C | COc1ccc2c(c1)C(O)c1cc(CO)ccc1O2 (stereo not given)
20 | 179 to 183 °C | N#CC(=Cc1ccc(C=Cc2ccccc2)cc1)S(=O)(=O)c1ccccc1
21 | 158 to 161 °C | COc1cc(CBr)c(OC)c(CCc2cc(OC)cc(CBr)c2OC)c1
22 | 68 to 70 °C | Fc1ccc(SCCCN2CCN(c3ncc(F)cn3)CC2)cc1
23 | 187 to 188 °C | CCOC(=O)COc1ccc2cc(-c3cc4ccccc4s3)ccc2c1Cl
24 | 148 to 150 °C | CCOC(=O)c1ccc(C(C(N)=O)C(C)c2cc(N)ccc2N2CCCCC2)cc1 (stereo not given)

Row | melting point | SMILES
25 | 135 to 137 °C | O=C(c1ccc(F)c(F)c1)N1CCC[C@H](c2nc(-c3ccccn3)no2)C1
26 | 223 to 226 °C | COc1ccc(C(=O)N[C@H]2CCN(C)C[C@H]2c2ccc(OC)c(OC)c2)cc1 (relative stereo)
27 | 320 to 323 °C | Cn1nc(-c2cnc3[nH]cc(C(=O)NC4CCCOC4)c3n2)c2ccc(Cl)cc21 (stereo not given)
28 | 53 to 54 °C | CC(C)c1ccc2c(c1)C(=O)c1ccccc1C2=O
29 | 81 to 84 °C | CCOC(=O)C(CC(=O)c1ccc(OC)cc1)C(=O)OCC
30 | 164 to 166 °C | Nc1cccc(CCC(=O)Nc2ccc(Nc3ccccc3)cc2)c1
31 | 88 °C | CCCCN(CCCC)CCCOc1ccc(S(=O)(=O)c2ccccc2C(C)C)cc1
32 | 181 to 183 °C | NC(=O)C(Sc1nc2cc(Cl)ccc2s1)c1ccccc1 (stereo not given)
33 | 121 to 122 °C | Cc1cc2nc(Cl)c(Cl)nc2c([N+](=O)[O-])c1Cl
34 | 48 to 50 °C | CC(C)(C)C(=O)N1CCSC1=S
35 | 190 to 191 °C | COCC1CN(c2ccc3cc(O)ccc3c2)C(=O)O1 (stereo not given)
36 | 163 to 165 °C | O=C(O)CC1c2ccccc2CCc2ccccc21
37 | 187 to 189 °C | CC(C)(O)c1cnc2c(NC(=O)c3c(Cl)cccc3Cl)cccc2c1
38 | > 300 °C | C=Cc1[nH]c(=O)c2c(ccc3nc(Nc4c(Cl)cccc4Cl)n(C)c32)c1C
39 | 64 to 65 °C | O=C(O)CSc1sccc1Br
40 | 216 to 218 °C | COc1ccc2c(c1)C(=O)c1c-2nc2ccccc2c1Cl
41 | 290 to 292 °C | COC(=O)c1ccc2ncc(C(=O)NCc3ccc(Cl)cc3)c(O)c2c1
42 | 160 to 162 °C | COC(=O)c1cccc(NC(=O)c2ccc(OC)c(N)c2)c1
43 | 59 to 61 °C | CCCCNNc1nc(C)c(C(=O)OCC)c(Cl)c1[N+](=O)[O-]
44 | 215 to 218 °C | CC1c2ccccc2Cn2cc3c(c21)C(=O)c1ccccc1C3=O (stereo not given)
45 | 107 °C | O=C1Nc2ccc(F)cc2C(C#Cc2ccccc2)(C(F)(F)F)N1 (racemic)
46 | 143 to 145 °C | COc1ccc(-c2cc(Sc3ccc([N+](=O)[O-])cc3[N+](=O)[O-])sc2-c2ccc(OC)cc2)cc1
47 | 75 to 76 °C | CC(Oc1ccc(-c2cccc(NC(N)=O)c2)cc1)C(O)CCc1cccnc1 (stereo not given)
48 | 116 to 117 °C | CCc1cc(Oc2ccc([C@H](O)[C@@H](Cc3cccc(OC(F)(F)C(F)F)c3)NC(=O)c3cccc4c3C=CCCC4)cc2)ccc1Cl (racemic)

Row | melting point | SMILES
49 | 64.4 °C | CON=C(C(C)=O)C(=O)OC
50 | 90 to 92 °C | COc1ccc(Cn2nnnc2C(O)c2ccccc2C)cc1 (racemic)
51 | 192 to 195 °C | NNc1cc2c(nn1)CCN(C(=O)c1ccc(Br)cc1)C2
52 | 162 to 172 °C | CCOC(=O)c1c(Nc2ccccc2OC)n[nH]c1C
53 | 103 to 104 °C | C=CC(C)(C)CC(=O)C(=O)Nc1ccc2c(c1)C(=O)OC2
54 | 156 to 157 °C | CC(=O)Nc1ccc(Br)c(C)n1
55 | 223 to 225 °C | Cc1cn(-c2cc(NC(=O)c3ccc(C)c(C#Cc4ccc(NC5CCC5)nn4)c3)cc(C(F)(F)F)c2)cn1
56 | 162 to 164 °C | CCOC(=O)C1=C(C)NC(=S)N(S(=O)(=O)c2ccccc2)C1c1cccc([N+](=O)[O-])c1 (stereo not given)
57 | 92 to 94 °C | CCCCCc1c(C(C)C)nc(C(C)C)c(CO)c1-c1ccc(C)cc1
58 | 282 to 284 °C | COc1ccc(Cc2cccc(-c3c(O)c4ccc(Cl)cc4[nH]c3=O)c2)cc1
59 | 128 to 132 °C | N#Cc1c(N2CCCN(c3ccccc3)CC2)cc[nH]c1=S
60 | 188 to 189 °C | O=C1Cc2c(ccc3c(CCC4CCN(Cc5ccccc5)CC4)noc23)N1
61 | 121 to 125 °C | COc1cccc2c(NCc3ccccc3C)nccc12
62 | 212 to 213 °C | CC1(C)OC(=O)C(=C(Nc2ccccc2Br)N2CCOCC2)C(=O)O1
63 | 159 °C | Nc1ccsc1[N+](=O)[O-]
64 | 102 to 104 °C | Cc1cc(C)c(C(=O)c2c(C)cccc2C)c(OCC(O)CNC(C)C)c1 (stereo not given)
65 | 146 to 148 °C | COc1ccc(-c2sc3cccnc3c2OC(C)=O)cc1
66 | 92 °C | COC(=O)C1CC(O)CN1C(=O)c1ccc(OC)cc1 (stereo not given)
67 | 228 to 229 °C | C/C(=C\C(=O)NCc1cccnc1)c1ccc(OCC(=O)O)cc1
68 | 263 to 270 °C | O=c1[nH]c2ccc(S(=O)(=O)N3CCN(c4ccccn4)CC3)c3c2c2c(cccc12)C3
69 | 129 to 130 °C | CN1CCC(c2c[nH]c3ccc(NC(=O)c4cccc(F)c4)nc23)CC1
70 | 56 to 58 °C | CC(=O)CCc1ccc2ccccc2c1
71 | 217 to 219 °C | CN1c2ccc(S(=O)(=O)c3ccccc3)cc2C2C[C@H](N)CCC21 (stereo not given in full)
72 | 164 to 165 °C | Nc1nc2c(s1)CCN(CC=Cc1ccc3ccccc3c1)CC2

Row | melting point | SMILES
73 | 114 °C | NC(=O)C(N)c1ccc(Cl)cc1Cl (stereo not given)
74 | 198 to 201 °C | CCCN(CCc1ccccc1)CCc1cccc2[nH]c(=S)[nH]c12
75 | 116 to 117 °C | CC(C(=O)Nc1cccc2c1C(=O)c1c(NC(=O)C(C)N(C)C)cccc1C2=O)N(C)C (stereo not given)
76 | 144 to 146 °C | CN(C)C(=O)c1cc(OCc2ccccc2)c2nc(C(F)(F)F)n(C)c2c1
77 | 207 °C | Cc1c(C(=O)OC(C)(C)C)c(O)cc2c1C(=O)c1c(O)cccc1C2=O
78 | 52.8 °C | C=CCc1cc(OCC(=O)OCC)ccc1O
79 | 194 °C | O=C(O)/C=C/c1ccc(OS(=O)(=O)C(F)(F)F)cc1
80 | 233 to 236 °C | CSc1ccc(-c2nc(SC)c(C#N)c(=O)n2-c2ccc(C(C)(C)C)cc2)cc1
81 | 190 to 192 °C | CC1(C(=O)O)CCc2cc(O)ccc2O1 (stereo not given)
82 | 129 to 131 °C | CCC(Br)=C1NC(=O)N(C(C(=O)Nc2cc(NC(=O)C(CC)Oc3ccc(C(C)(C)CC)cc3C(C)(C)CC)ccc2Cl)C(=O)C(C)(C)C)C1=O (stereo not given)
83 | 65 to 69 °C | CN(C)C1(C(N)=O)CCCCC1
84 | 221 to 222 °C | CN(Cc1ccc(NC(=O)C2=Cc3cc(-c4ccc(Cl)s4)ccc3S(=O)(=O)CC2)cc1)C1CCOCC1
85 | 98 to 100 °C | CCCCc1nc(Cl)c(COc2ccccn2)n1Cc1ccc(-c2ccccc2-c2nnn[nH]2)cc1
86 | 151 to 153 °C | CN1CCN(C(=O)CC2CN=C(c3cc4cccc(N(C)S(=O)(=O)c5cccs5)c4[nH]3)S2)CC1 (stereo not given)
87 | 180 °C | CC(=O)OC1CSC(Oc2ccc(-c3ccncc3)cc2)C(OC(C)=O)C1OC(C)=O (stereo not given)
88 | 142 to 143 °C | CC(C)(C)OC(=O)NN(C[C@H](O)[C@H](Cc1ccccc1)NC(=O)OCc1ccccc1)C1CCCCC1
89 | 126 to 128 °C | Cc1cc(C)c(Nc2nc(C)nc(OC3CCOC3)c2C)c(C)c1 (stereo not given)
90 | 141 to 142 °C | CC(C)c1c(C=CC2CC(O)CC(O)O2)n(C2CCCCC2)c(=O)c2ccccc12 (mixture of isomers)
91 | 190 °C | CCOC(=O)c1nc(NC(C)=O)sc1Cc1ccc(SCC)cc1
92 | 60 to 61 °C | Cc1c(C)c2c(c(C)c1Br)CC(C)(CBr)O2 (stereo not given)
93 | 134 to 138 °C | Nc1nc2c(s1)CCN(CC1=Cc3ccccc3C1)CC2

Row | SMILES | melting point
94 | O=C(OCC1CC1)c1ncn2c1[C@@H]1CCCN1C(=O)c1ccccc1-2 | 189 to 190 °C
95 | CN1CCCCc2[nH]c3ccccc3c2CC1 | 128 to 131 °C
96 | Cc1ccc2[nH]cc(C(=O)[C@H]3CCCN3)c2c1 | 194 to 196 °C
97 | CC1c2ccccc2N(CCN2CC=C(c3c[nH]c4cc(F)ccc34)CC2)S(=O)(=O)N1C (stereo not given) | 105 to 108 °C
98 | CC(=O)NC(=O)NCC(=O)N1CC1C#N (stereo not given) | 118 to 122 °C
99 | CCOc1ccc2c(c1)c(C[C@H](C)N)c1n2CCC1 | 101 to 102 °C
100 | CCCCS(=O)(=O)C(c1ccc(Cl)cc1)c1ccc(Cl)cc1 | 104 to 106 °C
